Entries after “also recorded” stand apart in the source; their conditions may differ. Like-named read-outs stand apart in the source and are kept apart here.
Key:
[1] = test system: yeast cells; conditions: cited from earlier work
[2] = test system: S. cerevisiae; assay: Growth inhibition assay, 96-well microplate format; assay type: cell-based, Saccharomyces cerevisiae; conditions: for IC80: read-out: log 1/IC80 Obsd (converted)
[3] = test system: S. cerevisiae; assay: DEL; conditions: IC80 concentration; for Induction of deletion, fold increase over untreated control, Obsd: 17 h, DEL(URA3) strain, average of three samples; for deletion formation / genotoxicity in words: DEL assay
[4] = test system: yeast; conditions: aniline metabolites in yeast; cited from earlier work
[5] = Water solubility; assay type: physicochemical; conditions: water / assay medium
[6] = test system: DNA repair null mutant yeast strains; assay type: cell-based, Saccharomyces cerevisiae
[7] = Saccharomyces cerevisiae, 17 h, read-out: log 1/IC50 Obsd (converted)

Structure (SMILES): Oc1c(Cl)c(Cl)c(Cl)c(Cl)c1Cl [2,3,4,5,6-Cl5]
- log 1/ICFR50 Obsd [1]: 3.96

Structure (SMILES): Oc1c(F)c(F)c(F)c(F)c1F [2,3,4,5,6-F5]
- log 1/ICFR50 Obsd [1]: 2.05

Structure (SMILES): Oc1cc(Cl)c(Cl)c(Cl)c1Cl [2,3,4,5-Cl4]
- log 1/ICFR50 Obsd [1]: 3.92

Structure (SMILES): Oc1cccc(Cl)c1Cl [2,3-Cl2]
- log 1/ICFR50 Obsd [1]: 2.68

Structure (SMILES): Oc1cc(Cl)c(Cl)cc1Cl [2,4,5-Cl3]
- log 1/ICFR50 Obsd [1]: 3.26

Structure (SMILES): Oc1c(I)cc(I)cc1I [2,4,6-(I)3]
- log 1/ICFR50 Obsd [1]: 4.3

Structure (SMILES): Oc1c(Cl)cc(Cl)cc1Cl [2,4,6-Cl3]
- log 1/ICFR50 Obsd [1]: 3.28

Structure (SMILES): Oc1ccc(Cl)cc1Cl [2,4-Cl2]
- log 1/ICFR50 Obsd [1]: 2.77

Structure (SMILES): Oc1c(Cl)cccc1Cl [2,6-Cl2]
- log 1/ICFR50 Obsd [1]: 2.52

Structure (SMILES): Oc1ccccc1Br [2-Br]
- log 1/ICFR50 Obsd [1]: 2.08

Structure (SMILES): COc1ccc(O)c(C(C)(C)C)c1 [2-C(CH3)3,4-OCH3, 2-tert-butyl-4-methoxy-phenol]
- IC50 [2, 7]: 288 µM
- IC80 ([2]; Saccharomyces cerevisiae, 17 h): 407 µM
- Induction of deletion, fold increase over untreated control, Obsd [3]: 2.57 fold
- Induction of deletion, fold increase over untreated control, Obsd ([3]; listed as BHA-2): greater than 2 fold

Structure (SMILES): Cc1ccc(O)c(N)c1 [2-NH2,4-CH3]
- log 1/ICFR50 Obsd [1]: 1.07

Structure (SMILES): Oc1ccccc1O [2-OH (catechol), catechol]
- IC50 [2, 7]: 2240 µM
- IC80 ([2]; Saccharomyces cerevisiae, 17 h): 3390 µM
- Induction of deletion, fold increase over untreated control, Obsd [3]: 2.26 fold

Structure (SMILES): Oc1cc(Cl)c(Cl)c(Cl)c1 [3,4,5-Cl3]
- log 1/ICFR50 Obsd [1]: 3.3

Structure (SMILES): CC(C)(C)c1cc(O)cc(C(C)(C)C)c1 [3,5-(C(CH3)3)2]
- log 1/ICFR50 Obsd [1]: 3.96

Structure (SMILES): COc1cc(O)cc(OC)c1 [3,5-(OCH3)2]
- log 1/ICFR50 Obsd [1]: 1.54

Structure (SMILES): COc1ccc(O)cc1C(C)(C)C [3-C(CH3)3,4-OCH3, 3-tert-butyl-4-methoxy-phenol]
- IC50 [2, 7]: 380 µM
- IC80 ([2]; Saccharomyces cerevisiae, 17 h): 490 µM
- deletion formation / genotoxicity in words ([3]; listed as BHA-3): do not increase the deletion formation
- Induction of deletion, fold increase over untreated control, Obsd [3]: 1.17 fold

Structure (SMILES): Oc1cccc(C(F)(F)F)c1 [3-CF3]
- log 1/ICFR50 Obsd [1]: 2.31

Structure (SMILES): CCCCCc1ccc(O)cc1 [4-(CH2)4CH3, 4-pentylphenol]
- IC50 [2, 7]: 89.1 µM
- IC80 ([2]; Saccharomyces cerevisiae, 17 h): 110 µM

Structure (SMILES): CCCCCCCCCc1ccc(O)cc1 [4-(CH2)8CH3, 4-nonylphenol]
- IC50 ([2]; Saccharomyces cerevisiae, 17 h): 20 µM
- IC50 [2, 7]: 20 µM
- IC80 ([2]; Saccharomyces cerevisiae, 17 h): 39.8 µM
- Induction of deletion, fold increase over untreated control, Obsd [3]: 2.58 fold

Structure (SMILES): Oc1ccc(Br)cc1 [4-Br, 4-bromophenol]
- log 1/ICFR50 Obsd [1]: 2.4
- IC50 [2, 7]: 832 µM
- IC80 ([2]; Saccharomyces cerevisiae, 17 h): 1100 µM

Structure (SMILES): Cc1ccc(O)c([N+](=O)[O-])c1 [4-CH3,2-NO2]
- log 1/ICFR50 Obsd [1]: 2.1

Structure (SMILES): N#Cc1ccc(O)cc1 [4-CN, 4-cyanophenol]
- IC50 [2, 7]: 3020 µM
- IC80 ([2]; Saccharomyces cerevisiae, 17 h): 5500 µM
- Induction of deletion, fold increase over untreated control, Obsd [3]: 1.25 fold

Structure (SMILES): O=C(O)c1ccc(O)cc1 [4-COOH]
- log 1/ICFR50 Obsd [1]: 1.75

Structure (SMILES): Cc1cc(O)cc(C)c1Cl [4-Cl, 3,5-(CH3)2]
- log 1/ICFR50 Obsd [1]: 2.96

Structure (SMILES): Oc1ccc(Cl)cc1 [4-Cl, 4-chlorophenol]
- log 1/ICFR50 Obsd [1]: 2.07
- IC50 [2, 7]: 1350 µM
- IC80 ([2]; Saccharomyces cerevisiae, 17 h): 1660 µM
- Induction of deletion, fold increase over untreated control, Obsd [3]: 1.85 fold

Structure (SMILES): Oc1ccc(F)cc1 [4-F, 4-fluorophenol]
- IC50 [2, 7]: 4790 µM
- IC80 ([2]; Saccharomyces cerevisiae, 17 h): 6170 µM
- Induction of deletion, fold increase over untreated control, Obsd [3]: 2.03 fold

Structure (SMILES): Oc1ccccc1 [4-H, phenol]
- log 1/ICFR50 Obsd [1]: 1.17
- IC50 [2, 7]: 11000 µM
- IC80 ([2]; Saccharomyces cerevisiae, 17 h): 14100 µM
- Induction of deletion, fold increase over untreated control, Obsd [3]: 2.27 fold

Structure (SMILES): Oc1ccc(I)cc1 [4-I]
- log 1/ICFR50 Obsd [1]: 2.4

Structure (SMILES): O=[N+]([O-])c1ccc(O)cc1 [4-NO2, 4-nitrophenol]
- log 1/ICFR50 Obsd [1]: 2.85
- IC50 [2, 7]: 603 µM
- IC80 ([2]; Saccharomyces cerevisiae, 17 h): 813 µM

Structure (SMILES): CCOc1ccc(O)cc1 [4-OC2H5, 4-ethoxyphenol]
- IC50 [2, 7]: 6760 µM
- IC80 ([2]; Saccharomyces cerevisiae, 17 h): 7940 µM

Structure (SMILES): CCCOc1ccc(O)cc1 [4-OC3H7, 4-propoxyphenol]
- IC50 [2, 7]: 1820 µM
- IC80 ([2]; Saccharomyces cerevisiae, 17 h): 2240 µM

Structure (SMILES): CCCCOc1ccc(O)cc1 [4-OC4H9, 4-butoxyphenol]
- IC50 [2, 7]: 525 µM
- IC80 ([2]; Saccharomyces cerevisiae, 17 h): 692 µM

Structure (SMILES): COc1ccc(O)cc1 [4-OCH3, 4-methoxyphenol]
- IC50 [2, 7]: 10500 µM
- IC80 ([2]; Saccharomyces cerevisiae, 17 h): 12300 µM
- Induction of deletion, fold increase over untreated control, Obsd [3]: 2.01 fold

Structure (SMILES): Oc1ccc(O)cc1 [4-OH, hydroquinone]
- IC50 [2, 7]: 27500 µM
- IC80 ([2]; Saccharomyces cerevisiae, 17 h): 40700 µM
- Induction of deletion, fold increase over untreated control, Obsd [3]: 2.25 fold

Structure (SMILES): CC(=O)Nc1ccc(O)cc1 [4-acetamidophenol]
- increase in deletion frequencies in words [4]: did not show a significant increase

Structure (SMILES): CCCCCCCCCCCCc1ccc(O)cc1 [4-dodecylphenol]
- inhibition at 350 µM ([2]; Saccharomyces cerevisiae, read-out: growth inhibition): 40%
- solubility in words [5]: poor water solubility

Structure (SMILES): COc1ccc(O)c(C(C)(C)C)c1 [BHA, butylated hydroxy anisole]
- log 1/IC80 Obsd ([2]; 80% inhibition of yeast growth, 17 h, 30 °C, OD 655 nm): 3.37
- log 1/IC50 Obsd ([2]; inhibition of yeast growth, 17 h, 30 °C, OD 655 nm): 3.72
- growth phenotype of DNA repair null mutant strains [6]: growth defects in most of the DNA repair null mutant strains tested; also recorded: some level of growth defect
- growth phenotype of Δrad4 strain [6]: more resistant
- growth phenotype of Δrad14 strain [6]: increased sensitivity
- deletion formation / genotoxicity in words [3]: significant increase in deletion events

Structure (SMILES): Cc1cc(C(C)(C)C)c(O)c(C(C)(C)C)c1 [BHT, 2,6-di-tert-butyl-4-methyl-phenol]
- IC50 [2, 7]: 132 µM
- IC80 ([2]; Saccharomyces cerevisiae, 17 h): 251 µM
- growth phenotype of DNA repair null mutant strains [6]: unresponsive; also recorded: negligible; also recorded: did not cause clear growth defects

Structure (SMILES): CC(C)(c1ccc(O)cc1)c1ccc(O)cc1 [bisphenol-A, bisphenol A]
- IC50 [2, 7]: 676 µM
- IC80 ([2]; Saccharomyces cerevisiae, 17 h): 813 µM

Source: article PMC5748281 (ACS Omega, 2017)
